In ChEMBL document CHEMBL6103656, “Discovery of BT-114143, a Novel and Potent Phosphoric Acid-Containing Small-Molecule Plasminogen Activation Inhibitor for Hyperfibrinolysis” (J Med Chem, 2025):
The source made the active and inactive calls. No cut-off for these calls is given here.

Legend:
Rattus norvegicus = assay: Hemostatic effect in rt-PA enhanced Sprague-Dawley rat tail bleeding model assessed as reduction in tail bleeding time at 5 mg/kg infused into right jugular vein; format: functional, organism-based; conditions: route iv
Blood = assay: Ratio of compound IC50 to TXA IC50 in anti-fibrinolytic activity in healthy human fresh blood by plasma clot lysis; format: functional

SMILES	Activity (Rattus norvegicus)	Ratio IC50 (Blood)
NCCCCCC(=O)O	inactive	–
Cl.O=C(O)c1nc2c(s1)CCNC2	–	>10
Cl.O=c1[nH]c(-c2ccc3c(n2)CCNC3)no1	–	0.86
Cl.O=P(O)(CCc1ccccc1)c1ccc2c(n1)CCNC2	–	0.36
Cl.O=P(O)(Cc1ccccc1)c1ccc2c(n1)CCNC2	–	1.29
CC(C)C1Cc2nc(P(=O)(O)O)ccc2CN1.Cl (mixture of isomers)	–	0.14
Cl.O=C(O)c1cc2c(cn1)CNCC2	–	4.33
CC(=O)NS(=O)(=O)c1ccc2c(n1)CCNC2.Cl	–	>10
Cl.O=P(O)(O)c1ccc2c(n1)CC(CCc1ccccc1)NC2 (mixture of isomers)	–	0.2
CCOP(=O)(O)c1ccc2c(n1)CCNC2.Cl	–	0.29
Cl.O=C(O)c1cnc2c(c1)CCNC2	–	2.16
CN(C)S(=O)(=O)NC(=O)c1ccc2c(n1)CCNC2.Cl	–	0.99
Cl.O=C(O)c1nc2c(s1)CNCC2	–	0.94
CS(=O)(=O)NC(=O)c1ccc2c(n1)CCNC2.Cl	–	2.06
CC(C)(C)C[C@H]1C[C@@H](c2cc(=O)[nH]o2)CCN1.Cl	–	0.15
Cl.O=C(O)c1cc2c(s1)CNCC2	–	1.36
Cl.O=P(O)(O)c1ccc2c(n1)C(N1CC[S+]([O-])CC1)CNC2 (mixture of isomers)	–	0.17
Cl.O=P(O)(c1ccccc1)c1ccc2c(n1)CCNC2	–	0.2
CCP(=O)(O)c1ccc2c(n1)CCNC2.Cl	–	0.86
